Source: ChEMBL document CHEMBL5537143, “Synthesis and antimicrobial properties of guanidine-functionalized labdane type diterpenoids” (Eur J Med Chem, 2024)
Values after ≈ are worked out from the molar mass of the structure shown.

How the values were obtained:
Klebsiella pneumoniae [1] = assay: Antimicrobial activity against Klebsiella pneumoniae ATCC 13883 assessed as inhibition of microbial growth incubated for 24 hrs by broth-microdilution assay; format: functional
Pseudomonas aeruginosa [2] = assay: Antimicrobial activity against Pseudomonas aeruginosa ATCC 27853 assessed as inhibition of microbial growth incubated for 24 hrs by broth-microdilution assay; format: functional; details: Pseudomonas aeruginosa; for MIC: ATCC 27853, read-out: MIC100
Pseudomonas aeruginosa [3] = assay: Antimicrobial activity against Pseudomonas aeruginosa PAO1 assessed as inhibition of microbial growth incubated for 24 hrs by broth-microdilution assay; format: functional; details: for MIC: Pseudomonas aeruginosa, PAO1, read-out: MIC100
Staphylococcus aureus [4] = assay: Antimicrobial activity against Staphylococcus aureus 29213 assessed as inhibition of microbial growth incubated for 24 hrs by broth-microdilution assay; format: functional
Staphylococcus aureus [5] = assay: Antimicrobial activity against methicillin resistant Staphylococcus aureus 43300 assessed as inhibition of microbial growth incubated for 24 hrs by broth-microdilution assay; format: functional; details: read-out: MIC
[6] = tested on: Staphylococcus epidermidis; assay: Antimicrobial activity against Staphylococcus epidermidis ATCC 12228 assessed as inhibition of microbial growth incubated for 24 hrs by broth-microdilution assay; format: functional; details: Staphylococcus epidermidis
[7] = tested on: Staphylococcus epidermidis; assay: Antimicrobial activity against Staphylococcus epidermidis ATCC 35984 assessed as inhibition of microbial growth incubated for 24 hrs by broth-microdilution assay; format: functional; details: Staphylococcus epidermidis
Candida albicans [8] = assay: Antifungal activity against Candida albicans ATCC 90028 assessed as reduction in fungal growth incubated for 48 hrs by CLSI based analysis; format: functional
Klebsiella pneumoniae [9] = assay: Antimicrobial activity against Klebsiella pneumoniae ATCC BAA1705 assessed as inhibition of microbial growth incubated for 24 hrs by broth-microdilution assay; format: functional
Staphylococcus aureus [10] = assay: Antimicrobial activity against Staphylococcus aureus ATCC 29213 assessed as inhibition of microbial growth incubated for 24 hrs by broth-microdilution assay; format: functional; details: Staphylococcus aureus, ATCC 29213, read-out: MIC100
Staphylococcus aureus [11] = assay: Antimicrobial activity against Staphylococcus aureus ATCC 43300 assessed as inhibition of microbial growth incubated for 24 hrs by broth-microdilution assay; format: functional; details: Staphylococcus aureus, ATCC 43300, read-out: MIC100
Candida albicans [12] = assay: Antifungal activity against Candida albicans ATCC 10231 assessed as reduction in fungal growth incubated for 48 hrs by CLSI based analysis; format: functional; details: read-out: MIC100
[13] = Acute toxicity in zebrafish embryo assessed as mortality rate at 16 microg/ml preincubated with compound for 24 hrs and measured after 24 hrs post fertilization; parameters: species or system Danio rerio; details: in vivo, at 16 µg/mL
[14] = Acute toxicity in zebrafish embryo assessed as mortality rate at 32 microg/ml preincubated with compound for 24 hrs and measured after 48 to 72 hrs post fertilization; parameters: species or system Danio rerio; details: in vivo, at 32 µg/mL
Pseudomonas aeruginosa [15] = assay: Antimicrobial activity against Pseudomonas aeruginosa PAO1 assessed as inhibition of microbial growth at 128 microg/ml incubated for 24 hrs by broth-microdilution assay relative to control; format: functional
Klebsiella pneumoniae [16] = assay: Antimicrobial activity against Carbapenem -resistant Klebsiella pneumoniae ATCC 13883 assessed as inhibition of microbial growth incubated for 24 hrs by broth-microdilution assay; format: functional
Klebsiella pneumoniae [17] = assay: Antimicrobial activity against Carbapenem-resistant Klebsiella pneumoniae ATCC BAA1705 assessed as inhibition of microbial growth incubated for 24 hrs by broth-microdilution assay; format: functional
Pseudomonas aeruginosa [18] = assay: Antimicrobial activity against Pseudomonas aeruginosa 27853 assessed as inhibition of microbial growth at 128 microg/ml incubated for 24 hrs by broth-microdilution assay relative to control; format: functional
Staphylococcus aureus [19] = assay: Synergistic antimicrobial activity against methicillin resistant Staphylococcus aureus 43300 assessed as inhibition of microbial growth incubated for 24 hrs in presence of Oxacillin by checkerboard assay; format: functional; details: read-out: MIC100
Klebsiella pneumoniae [20] = assay: Synergistic antimicrobial activity against Klebsiella pneumoniae ATCC BAA1705 assessed as inhibition of microbial growth incubated for 24 hrs in presence of Imipenem by checkerboard assay; format: functional; details: read-out: MIC100
Candida albicans [21] = assay: Synergistic antifungal activity against Candida albicans ATCC 10231 assessed as reduction in fungal growth incubated for 48 hrs in presence of Voriconazole by CLSI based analysis; format: functional; details: read-out: MIC100
Staphylococcus aureus [22] = assay: Synergistic antimicrobial activity against methicillin resistant Staphylococcus aureus 43300 assessed as Oxacillin MIC incubated for 24 hrs by checkerboard assay; format: functional; details: read-out: MIC100
Klebsiella pneumoniae [23] = assay: Synergistic antimicrobial activity against Klebsiella pneumoniae ATCC BAA1705 assessed as Imipenem MIC incubated for 24 hrs by checkerboard assay; format: functional; details: read-out: MIC100
Candida albicans [24] = assay: Synergistic antifungal activity against Candida albicans ATCC 10231 assessed as Voriconazole MIC incubated for 48 hrs by CLSI based analysis; format: functional; details: read-out: MIC100
Staphylococcus aureus [25] = assay: Synergistic antimicrobial activity against methicillin resistant Staphylococcus aureus 43300 assessed as fractional inhibitory concentration index incubated for 24 hrs in presence of Oxacillin by checkerboard assay; format: functional
Klebsiella pneumoniae [26] = assay: Synergistic antimicrobial activity against Klebsiella pneumoniae ATCC BAA1705 assessed as fractional inhibitory concentration index incubated for 24 hrs in presence of Imipenem by checkerboard assay; format: functional
Candida albicans [27] = assay: Synergistic antifungal activity against Candida albicans ATCC 10231 assessed as fractional inhibitory concentration index incubated for 48 hrs in presence of Voriconazole by CLSI based analysis; format: functional
[28] = Acute toxicity in zebrafish embryo assessed as mortality rate at 32 microg/ml preincubated with compound for 24 hrs and measured after 24 hrs post fertilization; parameters: species or system Danio rerio; details: in vivo, at 32 µg/mL
[29] = Acute toxicity in zebrafish embryo assessed as mortality rate at 4 microg/ml preincubated with compound for 24 hrs and measured after 48 to 72 hrs post fertilization; parameters: species or system Danio rerio; details: in vivo, at 4 µg/mL
[30] = Acute toxicity in zebrafish embryo assessed as mortality rate at 8 microg/ml preincubated with compound for 24 hrs and measured after 48 to 72 hrs post fertilization; parameters: species or system Danio rerio; details: in vivo, at 8 µg/mL
[31] = Acute toxicity in zebrafish embryo assessed as mortality rate at 16 microg/ml preincubated with compound for 24 hrs and measured after 48 to 72 hrs post fertilization; parameters: species or system Danio rerio; details: in vivo, at 16 µg/mL
[32] = Acute toxicity in zebrafish embryo assessed as mortality rate at 0.7 microg/ml preincubated with compound for 24 hrs and measured after 48 to 72 hrs post fertilization; parameters: species or system Danio rerio; details: in vivo, at 0.7 µg/mL
[33] = Acute toxicity in zebrafish embryo assessed as mortality rate at 2 microg/ml preincubated with compound for 24 hrs and measured after 48 to 72 hrs post fertilization; parameters: species or system Danio rerio; details: in vivo, at 2 µg/mL
[34] = Acute toxicity in zebrafish embryo preincubated with compound for 24 hrs and measured after 24 hrs post fertilization; parameters: species or system Danio rerio; details: in vivo
[35] = Acute toxicity in zebrafish embryo preincubated with compound for 24 hrs and measured after 48 to 96 hrs post fertilization; parameters: species or system Danio rerio; details: in vivo

## NC[C@H]1O[C@H](O[C@H]2[C@H](O)[C@@H](O[C@H]3O[C@H](CO)[C@@H](O)[C@H](N)[C@H]3O)[C@H](N)C[C@@H]2N)[C@H](N)C[C@@H]1O [TOBRAMYCIN]
Klebsiella pneumoniae [1]; read-out: MIC100
  MIC: 2 µg/mL
Pseudomonas aeruginosa [2]
  MIC: 2 µg/mL
Pseudomonas aeruginosa [3]
  MIC: 2 µg/mL

## CC(=O)O[C@](C)(CCC1[C@](C)(OC(C)=O)CC[C@H]2C(C)(C)CCC[C@]12C)C(=O)N=C(N)N (stereo not given in full)
Staphylococcus aureus [4]
  MIC: 4 µg/mL
Staphylococcus aureus [5]
  MIC: 4 µg/mL
[6]; ATCC 12228, read-out: MIC
  MIC: 4 µg/mL
[7]; ATCC 35984, read-out: MIC
  MIC: 4 µg/mL
Candida albicans [8]; read-out: MIC
  MIC: 16 µg/mL (≈ 35.4 µM)

## C[C@@H](O)[C@H]1C(=O)N2C(C(=O)O)=C(SCCNC=N)C[C@H]12 [IMIPENEM ANHYDROUS]
Klebsiella pneumoniae [9]; read-out: MIC100
  MIC: ≥ 4 µg/mL

## CC1=C(CC/C=C(\C)C(=O)N=C(N)N)[C@@]2(C)CCCC(C)(C)[C@@H]2CC1
Staphylococcus aureus [4]
  MIC: 4 µg/mL
Staphylococcus aureus [5]
  MIC: 4 µg/mL
[6]; ATCC 12228, read-out: MIC
  MIC: 4 µg/mL
[7]; ATCC 35984, read-out: MIC
  MIC: 4 µg/mL
Candida albicans [8]; read-out: MIC
  MIC: 8 µg/mL (≈ 23.2 µM)

## GENTAMICIN
Klebsiella pneumoniae [9]
  MIC100: 4 µg/mL

## CC1(C)CCC[C@]2(C)[C@H]3CC[C@@](C)(CC(=O)O)O[C@]3(C)CC[C@@H]12
[6]; ATCC 12228, read-out: MIC100
  MIC: 128 µg/mL
[7]; ATCC 35984, read-out: MIC100
  MIC: 128 µg/mL
Klebsiella pneumoniae [1]; read-out: MIC100
  MIC: > 128 µg/mL
Klebsiella pneumoniae [9]; read-out: MIC100
  MIC: > 128 µg/mL
Candida albicans [8]; read-out: MIC100
  MIC: > 128 µg/mL
Staphylococcus aureus [10]
  MIC: > 128 µg/mL
Staphylococcus aureus [11]
  MIC: > 128 µg/mL
Pseudomonas aeruginosa [2]
  MIC: > 128 µg/mL
Pseudomonas aeruginosa [3]
  MIC: > 128 µg/mL
Candida albicans [12]
  MIC: > 128 µg/mL

## CC1(C)CCC[C@]2(C)[C@H]3CC[C@@](C)(CC(=O)NC(=N)N)O[C@]3(C)CC[C@@H]12
[13]
  mortality at 24 h, 16 microg/ml: 10%
[14]
  mortality at 24 h, 32 microg/ml: 100%
Pseudomonas aeruginosa [15]
  inhibition at 128 µg/mL: 65%
Staphylococcus aureus [4]
  MIC: 4 µg/mL
Staphylococcus aureus [5]
  MIC: 4 µg/mL
[6]; ATCC 12228, read-out: MIC
  MIC: 4 µg/mL
[7]; ATCC 35984, read-out: MIC
  MIC: 4 µg/mL
Klebsiella pneumoniae [1]; read-out: MIC
  MIC: 16 µg/mL
Klebsiella pneumoniae [9]; read-out: MIC
  MIC: 32 µg/mL
Klebsiella pneumoniae [16]
  MIC: 32 µg/mL
Klebsiella pneumoniae [17]
  MIC: 32 µg/mL
Pseudomonas aeruginosa [18]
  inhibition at 128 µg/mL: 50%
Candida albicans [8]; read-out: MIC
  MIC: 16 µg/mL (≈ 44 µM)
Staphylococcus aureus [10]
  MIC: 8 µg/mL
Staphylococcus aureus [11]
  MIC: 8 µg/mL
Pseudomonas aeruginosa [2]; ATCC 27853
  MIC50: 128 µg/mL
Pseudomonas aeruginosa [3]
  MIC65: 128 µg/mL
Candida albicans [12]
  MIC: 16 µg/mL (≈ 44 µM)
Staphylococcus aureus [19]
  MIC: 2 µg/mL
Klebsiella pneumoniae [20]
  MIC: 16 µg/mL
Candida albicans [21]
  MIC: 2 µg/mL
Staphylococcus aureus [22]
  MIC: 0.5 µg/mL
Klebsiella pneumoniae [23]
  MIC: 2 µg/mL
Candida albicans [24]
  MIC: 0.125 µg/mL
Staphylococcus aureus [25]
  fractional inhibitory concentration index (FICI): 0.55
Klebsiella pneumoniae [26]
  fractional inhibitory concentration index (FICI): 0.6
Candida albicans [27]
  fractional inhibitory concentration index (FICI): 0.129
[28]
  mortality at 24 h, 32 microg/ml: 5%
[29]
  mortality at 4 microg/ml: 0%
[30]
  mortality at 24 h, 8 microg/ml: 0%
[31]
  mortality at 16 microg/ml: 100%
[32]
  mortality at 24 h, 0.7 microg/ml: 5%
[33]
  mortality at 2 microg/ml: 0%
[34]
  LC50 at 24 h: 93.4 µg/mL (≈ 257 µM)
[35]
  LC50: 11.5 µg/mL (≈ 31.6 µM)
